In ChEMBL document CHEMBL5143601, “Rationalizing the binding and α subtype selectivity of synthesized imidazodiazepines and benzodiazepines at GABAA receptors by using molecular docking studies” (Bioorg Med Chem Lett, 2022) one finds Ki and Ratio Ki data, which are given here for 19 compounds.

Assay [1] has as its target T1, GABA A receptor alpha-3/beta-2/gamma-2 (Homo sapiens, UniProt P18507+P34903+P47870).
T1 sequence (P47870 whole entry): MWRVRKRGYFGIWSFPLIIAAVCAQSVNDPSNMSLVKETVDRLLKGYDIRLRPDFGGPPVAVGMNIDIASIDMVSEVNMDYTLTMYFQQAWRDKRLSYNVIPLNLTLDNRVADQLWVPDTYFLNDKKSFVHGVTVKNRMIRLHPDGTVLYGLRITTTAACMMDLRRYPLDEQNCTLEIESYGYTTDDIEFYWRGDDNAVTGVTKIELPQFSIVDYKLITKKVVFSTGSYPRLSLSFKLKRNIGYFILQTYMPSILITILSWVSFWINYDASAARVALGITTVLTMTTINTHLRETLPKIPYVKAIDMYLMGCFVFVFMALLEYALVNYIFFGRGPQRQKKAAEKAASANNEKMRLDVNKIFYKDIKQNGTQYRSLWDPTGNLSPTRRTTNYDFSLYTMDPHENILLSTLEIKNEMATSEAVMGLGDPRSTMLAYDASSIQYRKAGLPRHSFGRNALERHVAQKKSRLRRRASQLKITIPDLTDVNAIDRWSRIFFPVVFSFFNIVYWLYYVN
T1 sequence (P18507 whole entry): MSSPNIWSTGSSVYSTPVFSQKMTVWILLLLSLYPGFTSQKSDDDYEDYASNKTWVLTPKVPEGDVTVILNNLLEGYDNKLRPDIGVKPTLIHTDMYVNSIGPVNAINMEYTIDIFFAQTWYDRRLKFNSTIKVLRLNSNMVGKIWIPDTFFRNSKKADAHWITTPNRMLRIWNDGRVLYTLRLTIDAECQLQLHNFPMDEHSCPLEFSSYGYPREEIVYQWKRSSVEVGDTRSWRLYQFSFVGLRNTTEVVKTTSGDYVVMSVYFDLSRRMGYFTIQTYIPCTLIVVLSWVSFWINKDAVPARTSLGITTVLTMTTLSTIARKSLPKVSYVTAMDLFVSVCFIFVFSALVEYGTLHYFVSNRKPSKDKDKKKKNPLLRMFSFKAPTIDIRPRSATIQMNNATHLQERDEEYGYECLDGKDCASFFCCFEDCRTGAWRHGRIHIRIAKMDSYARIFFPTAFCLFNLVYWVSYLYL
T1 sequence (P34903 whole entry): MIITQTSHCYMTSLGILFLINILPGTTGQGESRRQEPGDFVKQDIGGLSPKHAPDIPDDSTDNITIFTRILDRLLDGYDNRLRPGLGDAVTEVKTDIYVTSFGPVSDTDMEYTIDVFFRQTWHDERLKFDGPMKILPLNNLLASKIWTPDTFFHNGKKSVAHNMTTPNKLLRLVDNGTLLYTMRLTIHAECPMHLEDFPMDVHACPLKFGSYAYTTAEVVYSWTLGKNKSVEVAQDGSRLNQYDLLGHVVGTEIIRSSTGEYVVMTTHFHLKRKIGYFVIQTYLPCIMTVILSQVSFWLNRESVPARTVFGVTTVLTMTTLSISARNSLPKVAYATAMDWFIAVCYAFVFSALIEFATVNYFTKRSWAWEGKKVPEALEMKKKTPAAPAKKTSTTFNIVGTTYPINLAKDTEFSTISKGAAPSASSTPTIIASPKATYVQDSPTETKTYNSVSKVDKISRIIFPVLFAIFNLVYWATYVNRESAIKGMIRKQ
Description: Displacement of [3H]flunitrazepam from human recombinant alpha3beta2gamma2 GABAA receptor expressed in HEK cell membrane by competitive radioligand binding assay. The assay is classed as cell membranes. Background: In a radioligand displacement assay an active substance lowers the binding of a labelled ligand.

Assay [2] concerns the target T2, GABA A receptor alpha-2/beta-2/gamma-2 (Homo sapiens, UniProt P18507+P47869+P47870).
T2 sequence (P47870 whole entry): T1 sequence (P47870 whole entry)
T2 sequence (P18507 whole entry): T1 sequence (P18507 whole entry)
T2 sequence (P47869 whole entry): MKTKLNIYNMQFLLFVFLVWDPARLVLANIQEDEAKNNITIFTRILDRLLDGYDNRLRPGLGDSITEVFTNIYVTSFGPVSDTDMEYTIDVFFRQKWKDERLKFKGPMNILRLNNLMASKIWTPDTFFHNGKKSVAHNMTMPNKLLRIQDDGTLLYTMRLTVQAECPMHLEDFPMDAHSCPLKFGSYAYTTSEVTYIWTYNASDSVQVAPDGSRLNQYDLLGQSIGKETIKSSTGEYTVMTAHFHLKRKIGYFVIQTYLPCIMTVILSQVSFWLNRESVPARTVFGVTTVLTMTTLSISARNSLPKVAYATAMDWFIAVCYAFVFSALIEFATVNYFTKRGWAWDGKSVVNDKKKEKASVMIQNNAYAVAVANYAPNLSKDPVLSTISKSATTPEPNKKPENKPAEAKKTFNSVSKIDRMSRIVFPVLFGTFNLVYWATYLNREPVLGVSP
As to the kind of experiment: Displacement of [3H]flunitrazepam from human recombinant alpha2beta2gamma2 GABAA receptor expressed in HEK cell membrane by competitive radioligand binding assay. Format: cell membranes.

Assay [3] concerns the target T3, GABA-A receptor; alpha-1/beta-2/gamma-2 (Homo sapiens, UniProt P14867+P18507+P47870).
T3 sequence (P14867 whole entry): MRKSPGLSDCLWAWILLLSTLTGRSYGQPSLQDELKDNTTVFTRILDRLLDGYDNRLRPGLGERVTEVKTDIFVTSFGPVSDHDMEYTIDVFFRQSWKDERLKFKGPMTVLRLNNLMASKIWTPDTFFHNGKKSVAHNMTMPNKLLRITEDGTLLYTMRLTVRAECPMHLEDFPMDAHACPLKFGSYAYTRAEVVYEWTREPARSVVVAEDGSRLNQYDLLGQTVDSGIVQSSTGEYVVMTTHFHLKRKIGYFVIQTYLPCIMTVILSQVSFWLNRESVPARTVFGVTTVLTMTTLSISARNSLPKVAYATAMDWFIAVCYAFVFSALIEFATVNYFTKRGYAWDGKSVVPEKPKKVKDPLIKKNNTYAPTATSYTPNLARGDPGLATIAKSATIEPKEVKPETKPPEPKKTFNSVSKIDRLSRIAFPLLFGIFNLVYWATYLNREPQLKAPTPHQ
T3 sequence (P47870 whole entry): T1 sequence (P47870 whole entry)
T3 sequence (P18507 whole entry): T1 sequence (P18507 whole entry)
Description: Displacement of [3H]flunitrazepam from human recombinant alpha1beta2gamma2 GABAA receptor expressed in HEK cell membrane by competitive radioligand binding assay. The assay is classed as cell membranes.

The target of assay [4] is T4, Gamma-aminobutyric acid receptor subunit alpha-5/beta-2/gamma-2 (Homo sapiens, UniProt P18507+P31644+P47870).
T4 sequence (P47870 whole entry): T1 sequence (P47870 whole entry)
T4 sequence (P18507 whole entry): T1 sequence (P18507 whole entry)
T4 sequence (P31644 whole entry): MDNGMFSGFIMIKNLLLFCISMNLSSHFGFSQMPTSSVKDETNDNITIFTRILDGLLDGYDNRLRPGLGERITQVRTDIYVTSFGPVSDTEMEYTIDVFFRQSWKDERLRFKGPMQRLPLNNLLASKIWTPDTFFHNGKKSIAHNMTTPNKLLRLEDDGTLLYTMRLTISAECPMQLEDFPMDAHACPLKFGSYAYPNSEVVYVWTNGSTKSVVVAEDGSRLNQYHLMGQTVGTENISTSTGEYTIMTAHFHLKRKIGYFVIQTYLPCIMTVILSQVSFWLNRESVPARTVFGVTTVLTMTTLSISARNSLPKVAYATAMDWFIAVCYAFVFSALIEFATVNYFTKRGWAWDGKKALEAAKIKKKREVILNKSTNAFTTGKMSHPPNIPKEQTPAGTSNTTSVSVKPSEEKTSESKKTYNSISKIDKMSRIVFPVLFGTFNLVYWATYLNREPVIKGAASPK
As to the kind of experiment: Displacement of [3H]flunitrazepam from human recombinant alpha5beta2gamma2 GABAA receptor expressed in HEK cell membrane by competitive radioligand binding assay. The assay is classed as cell membranes.

The species named for the next assay is Homo sapiens. Description: Selectivity ratio of Ki for human recombinant alpha1beta2gamma2 GABAA receptor expressed in HEK cell membrane to Ki for human recombinant alpha5beta2gamma2 GABAA receptor expressed in HEK cell membrane. The assay is classed as cell-based.

As for `O=C1CN=C(c2ccccc2F)c2cc(Br)ccc2N1`, the Ki came out at 0.28 nM in assay [1], 0.15 nM in assay [2], 0.26 nM in assay [3] and 0.26 nM in assay [4].

Take `Cc1nnc2n1-c1ccc(Br)cc1C(c1ccccn1)=NC2`: the Ki in assay [1] is 5.1 nM; in assay [2], 6.1 nM; in assay [3] it was 7.3 nM; in assay [4], 7.7 nM.

`C[C@H]1N=C(c2ccccc2)c2cc(Br)ccc2NC1=O`: the Ki in assay [1], in assay [2], in assay [3] and in assay [4] was greater than 3000 nM in each case.

`C#Cc1ccc2c(c1)C(c1ccccc1Cl)=NCC(=O)N2C`: the inhibitory constant (Ki) in assay [2] was determined as 0.99 nM; in assay [3], 1.6 nM; in assay [4] it was 1.96 nM.

With `C#Cc1ccc2c(c1)C(c1ccccc1F)=NCc1nnc(C)n1-2`, the Ki stood at 2.1 nM in assay [2], 6.3 nM in assay [3] and 0.6 nM in assay [4].

As to `Cc1nnc2n1-c1ccc(Br)cc1C(c1ccccc1Cl)=NC2`, the inhibitory constant (Ki) in assay [1] stood at 0.6 nM; in assay [2], 1 nM; in assay [3] it was 0.5 nM; in assay [4], 0.4 nM.

Take `C#Cc1ccc2c(c1)C(c1ccccc1)=NCC(=O)N2C`: the Ki in assay [1] worked out at 47.4 nM; in assay [2], 42.1 nM; in assay [3] it was 76.3 nM; in assay [4], 6.8 nM. Also, in the assay listed under Homo sapiens, the Ratio Ki was 11.

In the case of `C#Cc1ccc2c(c1)C(c1ccccc1)=N[C@@H](C)c1nnc(C)n1-2`, the Ki came to 20.9 nM in assay [1], 50.1 nM in assay [2], 107 nM in assay [3] and 8.1 nM in assay [4]. The Ratio Ki in the assay filed under Homo sapiens is 13.

`Cc1nnc2n1-c1ccc(Cl)cc1C(c1ccccc1)=NC2` [ALPRAZOLAM]: the inhibition constant (Ki) in assay [1] amounted to 1.4 nM; in assay [2], 0.6 nM; in assay [3], 0.8 nM; in assay [4] it was 1.5 nM.

Take `C#Cc1ccc2c(c1)C(c1ccccc1F)=NCC(=O)N2C`: the Ki in assay [1] came to 3.4 nM; in assay [2], 1.2 nM; in assay [3], 3.9 nM; in assay [4], 0.8 nM.

Turning to `O=C1CN=C(c2ccccc2Cl)c2cc(Br)ccc2N1` [PHENAZEPAM], the Ki in assay [1] was found to be 0.12 nM; in assay [2] it was 0.06 nM; in assay [3] it was 0.05 nM; in assay [4], 0.68 nM.

As to `CN1C(=O)CN=C(c2ccccc2)c2cc(Br)ccc21`, the Ki in assay [1] came to 31 nM; in assay [2] it was 9.3 nM; in assay [3] it was 9.4 nM; in assay [4], 7.7 nM.

Consider `CN1C(=O)CN=C(c2ccccc2)c2ccccc21`, for which the inhibitory constant (Ki) in assay [1] amounted to 318 nM; in assay [2], 138 nM; in assay [3], 81 nM; in assay [4] it was 98 nM.

In the case of `C#Cc1ccc2c(c1)C(c1ccccc1)=NCc1nnc(C)n1-2`, the Ki in assay [2] was found to be 25.8 nM; in assay [3], 36.4 nM; in assay [4], 5.3 nM. Further, the Ratio Ki in the assay filed under Homo sapiens was found to be 6.

For `O=C1CN=C(c2ccccc2)c2ccccc2N1` [RO-052921], the Ki in assay [1] came out at 350 nM; in assay [2] it was 233 nM; in assay [3] it was 288 nM; in assay [4], 140 nM. In addition, in the assay listed under Homo sapiens, the Ratio Ki was 2.

For `C[C@@H]1N=C(c2ccccc2)c2cc(Br)ccc2NC1=O`, the Ki in assay [1] came out at 19.1 nM; in assay [2] it was 11 nM; in assay [3], 14.4 nM; in assay [4], 1.89 nM. Besides, the Ratio Ki in the assay filed under Homo sapiens was 7.

On to `C#Cc1ccc2c(c1)C(c1ccccc1Cl)=NCc1nnc(C)n1-2`, for which the Ki in assay [1] came out at 1.9 nM; in assay [2], 0.6 nM; in assay [3] it was 3.3 nM; in assay [4], 4.4 nM.

Consider `C#Cc1ccc2c(c1)C(c1ccccn1)=NCc1nnc(C)n1-2`, for which the Ki in assay [1] is 104 nM; in assay [2] it was 81.3 nM; in assay [3], 144 nM; in assay [4], 45.6 nM.

On to `Cc1nnc2n1-c1ccc(Br)cc1C(c1ccccc1)=NC2`, for which the figures for the inhibition constant Ki in assay [2], in assay [3] and in assay [4] were 0.7 nM, 2.8 nM and 0.6 nM, respectively.

The Ki is the equilibrium dissociation constant of an inhibitor or competing ligand from its target.
